Data as given in PubChem BioAssay AID1963867 (Molecular Pharmacology Branch, DTP, NCI, 2024).

Test system: KRAS-mutant PDC tumor spheroid with HUVEC/MSC, viability
Test: Anticancer human tumor 327498-153-R-J2-PDC patient-derived uterine carcinosarcoma cell line growth inhibition [KRAS2]
Conditions: for IC50: curve of first compound; for viability, T/C: stronger effect = lower value
Outline: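 KRAS-mutant tumor cells were grown as spheroids with HUVEC endothelial cells and human MSCs as stroma. Targeted agents were tested alone and with KRAS pathway inhibitors. Doses started at or near clinical Cmax, or 10 microM, descending half-log.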

[1] = second compound 0.1 µM, first compound 0.0316 µM
[2] = second compound 0.1 µM, first compound 0.1 µM
[3] = second compound 0.1 µM, first compound 0.316 µM
[4] = second compound 0.1 µM, first compound 1 µM
[5] = second compound 0.1 µM, first compound 3.16 µM
[6] = second compound 0.1 µM, first compound 10 µM
[7] = second compound 0.316 µM, first compound 0.0316 µM
[8] = second compound 0.316 µM, first compound 0.1 µM
[9] = second compound 0.316 µM, first compound 0.316 µM
[10] = second compound 0.316 µM, first compound 1 µM
[11] = second compound 0.316 µM, first compound 3.16 µM
[12] = second compound 0.316 µM, first compound 10 µM
[13] = second compound 1 µM, first compound 0.0316 µM
[14] = second compound 1 µM, first compound 0.1 µM
[15] = second compound 1 µM, first compound 0.316 µM
[16] = second compound 1 µM, first compound 1 µM
[17] = second compound 1 µM, first compound 3.16 µM
[18] = second compound 1 µM, first compound 10 µM
[19] = second compound 3.16 µM, first compound 0.0316 µM
[20] = second compound 3.16 µM, first compound 0.1 µM
[21] = second compound 3.16 µM, first compound 0.316 µM
[22] = second compound 3.16 µM, first compound 1 µM
[23] = second compound 3.16 µM, first compound 3.16 µM
[24] = second compound 3.16 µM, first compound 10 µM
[25] = second compound 10 µM, first compound 0.0316 µM
[26] = second compound 10 µM, first compound 0.1 µM
[27] = second compound 10 µM, first compound 0.316 µM
[28] = second compound 10 µM, first compound 1 µM
[29] = second compound 10 µM, first compound 3.16 µM
[30] = second compound 10 µM, first compound 10 µM
[31] = second compound 0.1 µM, first compound 0.01 µM
[32] = second compound 0.316 µM, first compound 0.01 µM
[33] = second compound 1 µM, first compound 0.01 µM
[34] = second compound 3.16 µM, first compound 0.01 µM
[35] = second compound 10 µM, first compound 0.01 µM
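Note: spheroids exposed to agents for seven days before reading.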
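Throughout, for viability, T/C: 100% = DMSO vehicle wells so lower means fewer viable cells.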

Compound	IC50 (second compound 0.1 µM) [nM]	IC50 (second compound 0.316 µM) [nM]	IC50 (second compound 1 µM) [nM]	IC50 (second compound 3.16 µM) [nM]	IC50 (second compound 10 µM) [nM]	viability, T/C [1] [%]	viability, T/C [2] [%]	viability, T/C [3] [%]	viability, T/C [4] [%]	viability, T/C [7] [%]	viability, T/C [8] [%]	viability, T/C [9] [%]	viability, T/C [10] [%]	viability, T/C [13] [%]	viability, T/C [14] [%]	viability, T/C [15] [%]	viability, T/C [16] [%]	viability, T/C [19] [%]	viability, T/C [20] [%]	viability, T/C [21] [%]	other results
CC(C)NCC(C(=O)N1CCN(c2ncnc3c2C(C)CC3O)CC1)c1ccc(Cl)cc1 (stereo not given) + C=CC(=O)N1CCN(c2nc(=O)n(-c3c(C)ccnc3C(C)C)c3nc(-c4c(O)cccc4F)c(F)cc23)C(C)C1	41.8	< 31.6	< 31.6	< 31.6	< 31.6	54.5	36.3	22.2	15.3	46.5	32.4	15.7	13.5	48.2	29.6	19.9	13.5	39.5	27.3	17.8	viability, T/C [5]: 11.2%; viability, T/C [6]: 9.06%; viability, T/C [11]: 11%; viability, T/C [12]: 7.87%; viability, T/C [17]: 10.4%; viability, T/C [18]: 7.77%; viability, T/C [22]: 12.2%; viability, T/C [23]: 9.99%; viability, T/C [24]: 8.2%; viability, T/C [25]: 33.5%; viability, T/C [26]: 18.2%; viability, T/C [27]: 14.6%; viability, T/C [28]: 9.84%; viability, T/C [29]: 9.14%; viability, T/C [30]: 3.03%
CC1COCCN1c1cc(-c2ccnn2C)c2ccnc(-c3ccn[nH]3)c2n1 (stereo not given) + C=CC(=O)N1CCN(c2nc(=O)n(-c3c(C)ccnc3C(C)C)c3nc(-c4c(O)cccc4F)c(F)cc23)C(C)C1	12.9	< 10	< 10	< 10	< 10	24.8	8.42	5.52	6.25	21.4	9	6.3	6.22	23.3	10.6	7.15	6.94	19.8	11.8	8.81	viability, T/C [31]: 57%; viability, T/C [5]: 5.47%; viability, T/C [32]: 46.7%; viability, T/C [11]: 6.06%; viability, T/C [33]: 40.1%; viability, T/C [17]: 6.78%; viability, T/C [34]: 42.5%; viability, T/C [22]: 7.29%; viability, T/C [23]: 6.89%; viability, T/C [35]: 28.5%; viability, T/C [25]: 14.4%; viability, T/C [26]: 11.9%; viability, T/C [27]: 9.29%; viability, T/C [28]: 8.01%; viability, T/C [29]: 6.76%
CCN1CCN(Cc2ccc(Nc3ncc(F)c(-c4cc(F)c5nc(C)n(C(C)C)c5c4)n3)nc2)CC1 + C=CC(=O)N1CCN(c2nc(=O)n(-c3c(C)ccnc3C(C)C)c3nc(-c4c(O)cccc4F)c(F)cc23)C(C)C1	5.23	< 3.16	< 3.16	< 3.16	< 3.16	32.7	30.6	30.7	35.1	28.2	31.1	34.9	40	30.2	33.5	39	38.3	33.8	32.7	40.5	viability, T/C (second compound 0.1 µM, first compound 0.00316 µM): 56.9%; viability, T/C [31]: 42.5%; viability, T/C (second compound 0.316 µM, first compound 0.00316 µM): 49.6%; viability, T/C [32]: 40.5%; viability, T/C (second compound 1 µM, first compound 0.00316 µM): 48.3%; viability, T/C [33]: 42%; viability, T/C (second compound 3.16 µM, first compound 0.00316 µM): 49.2%; viability, T/C [34]: 39%; viability, T/C [22]: 36.9%; viability, T/C (second compound 10 µM, first compound 0.00316 µM): 41.9%; viability, T/C [35]: 32.5%; viability, T/C [25]: 35.6%; viability, T/C [26]: 36.2%; viability, T/C [27]: 39.3%; viability, T/C [28]: 2.69%
CCNC(=O)CC1N=C(c2ccc(Cl)cc2)c2cc(OC)ccc2-n2c(C)nnc21 (stereo not given) + C=CC(=O)N1CCN(c2nc(=O)n(-c3c(C)ccnc3C(C)C)c3nc(-c4c(O)cccc4F)c(F)cc23)C(C)C1	253	103	154	117	< 31.6	58.2	58.7	45.8	40.4	55.6	50.7	45.7	33.5	60.4	51.2	51.1	33.7	55.4	48.9	46.3	viability, T/C [5]: 29.7%; viability, T/C [6]: 24.3%; viability, T/C [11]: 28.6%; viability, T/C [12]: 22.3%; viability, T/C [17]: 26.2%; viability, T/C [18]: 22.7%; viability, T/C [22]: 35.8%; viability, T/C [23]: 26.5%; viability, T/C [24]: 19.1%; viability, T/C [25]: 41.6%; viability, T/C [26]: 43.3%; viability, T/C [27]: 33.2%; viability, T/C [28]: 26.9%; viability, T/C [29]: 23.5%; viability, T/C [30]: 17.9%
